Measured values: patent US20250269018A1, “COMBINED CANCER THERAPY WITH AN EPITHELIAL CELL ADHESION MOLECULE (EPCAM) INHIBITOR AND A HEPATOCYTE GROWTH FACTOR RECEPTOR (HGFR) INHIBITOR” (ACADEMIA SINICA, priority 2021, published 2025)

Tested on: GSK3β, active β-catenin and Snail
Test: Western blotting of GSK3β, active β-catenin, Snail and EMT proteins in HCT116 cells
Format: cell-based, human
Conditions: HCT116
Protocol: FIGS. 4A to 4L. EpEX induces EMT and invasion by stabilizing β-catenin and Snail through decreasing GSK3β activity. (FIG. 4A) The protein expression of EMT markers and regulators was detected by Western blotting in Wild-type (WT) or EpCAM knockout (KO) HCT116 cells after EpEX treatment. (FIG. 4B) Cell invasion was examined by Transwell chamber assay with matrigel. (FIG. 4C) WT or KO HCT116 and HT29 cells were starved for 16 h, then treated with 0.5 nM of HGF with 2% FBS for 24 h. EMT-related protein expression (E-cadherin, vimentin, and Snail) was examined by Western blotting. (FIG. 4D) WT or KO HCT116 and HT29 cells were treated with HGF (0.5 nM) for 24 h. Invasion by HCT116 and HT29 cells was examined by Transwell chamber assay with matrigel. (FIG. 4E) HCT116 and HT29 cells were starved for 16 h, then treated with 0.5 nM of HGF with 2% FBS for 24 h. EMT-related protein expression (E-cadherin, Vimentin, and Snail) was examined by Western blotting. (FIG. 4F) HCT116 and HT29 cells were starved for 16 h, then treated with 0.5 nM of HGF with 2% FBS for 24 h. Cell invasion was assessed by a Transwell assay with matrigel. (FIG. 4G) HCT116 cells after shLuc and shHGFR treatment were treated with 50 nM of EpEX-His. HCT116 cells after shLuc and shHGFR treatment were treated with 50 nM of EpEX-His with 2% FBS for 24 h. EMT-related protein expression (E-cadherin, Vimentin, and Snail) was examined by Western blotting. (FIG. 4H) Cell invasion was examined by Transwell chamber assay with matrigel. (FIG. 4I) Starved HCT116 cells were treated SU (10 μM) for 1 h, followed by treatment with EpEX-His (50 nM) for 24 h. Phosphorylated GSK3β, active-β-catenin, and Snail were detected by Western blotting. (FIG. 4J) HCT116 cells were starved for 16 h, then treated with 50 nM EpEX-His for 24 min. AKT inhibitor LY294002 (25 μM), ERK inhibitor U0126 (20 μM), or PF-562271 (10 μM) were applied 1 h before EpEX treatment. Protein expression of phosphorylated GSK3β and Snail was examined by Western blotting. (FIG. 4K) HCT116 cells were starved for 16 h, then treated with 50 nM EpEX, and SU (10 μM), LY (25 μM), UO (20 μM) or PF (10 μM). Cell invasion was examined by Transwell chamber assay with matrigel. (FIG. 4L) Protein expression was analyzed by Western blotting in EpEX-His (50 nM) treated HCT116 cells after treatment with or without 2 μM GSK3β inhibitor (BIO) for 24 h. Quantification of the normalized protein expression in the right panel.
FIGS. 5A to 5I. EpEX promotes Snail protein stability through inhibition of ubiquitination-mediated proteasomal degradation. (FIG. 5A) The gene expression of EMT markers and regulators was detected by qRT-PCR in Wild-type (WT) or EpCAM knockout (KO) of HCT116 and HT29 cells. (FIG. 5B) Stability of Snail protein in WT or KO of HCT116 cells. Cells were treated with cyclohexamide (CHX) 100 μg/ml at the indicated intervals and subjected to Western blotting. (FIG. 5C) The protein expression of Snail was analyzed in WT or KO HCT116 cells by treating with or without […] MG132 (proteasome inhibitor) for 6 h, followed by Western blotting. (FIG. 5D) WT or KO HCT116 cells were treated with 10 μM MG132 for 6 h before cell collection. The lysates were subjected to immunoprecipitation using anti-Snail antibody and input. Western blotting was performed with the indicated antibodies to detect ubiquitinated Snail protein. (FIG. 5E) Stability of Snail protein in HCT116 cells after EpEX (50 nM) treatment for 24 h. Cells were treated with cyclohexamide (CHX; 100 μg/ml) for the indicated intervals and then subjected to Western blotting. (FIG. 5F) Expression of the gene encoding SNAIL was detected by qRT-PCR in HCT116 cells after EpEX (50 nM) treatment for 24 h. (FIG. 5G) The protein expression of Snail in HCT116 was analyzed cells by Western blotting after EpEX (50 nM) treatment for 24 h, and treatment with or without 10 μM MG132 (proteasome inhibitor) for 6 h. […]

[1] = SU 10 μM 1 h, then EpEX-His 50 nM 24 h, FIG. 4I
[2] = LY294002 25 μM, U0126 20 μM or PF-562271 10 μM 1 h before 50 nM EpEX-His for 24 min, FIG. 4J

Row | Structure (SMILES) | EpEX-induced active β-catenin and Snail protein expression [1] | EpEX-mediated GSK3β activity [1] | EpEX-mediated GSK3β activity [2] | EpEX-mediated Snail protein expression [2]
1 | Cc1[nH]c(C=C2C(=O)Nc3ccc(S(=O)(=O)N(C)c4cccc(Cl)c4)cc32)c(C)c1C(=O)N1CCN(C)CC1 (stereo in doubt) [SU11274, (3Z)-N-(3-Chlorophenyl)-3-({3,5-dimethyl-4-[(4-methylpiperazin-1-yl)carbonyl]-1H-pyrrol-2-yl}methylene)-N-methyl-2-oxo-2,3-dihydro-1H-indole-5-sulfonamide] | abolish EpEX-induced active β-catenin and Snail protein expression | attenuate EpEX-mediated GSK3β activity |  | 
2 | N#CC(=C(/N)Sc1ccccc1N)/C(C#N)=C(\N)Sc1ccccc1N [U0126] |  |  | attenuate EpEX-mediated GSK3β activity | attenuate
3 | CN(c1ncccc1CNc1nc(Nc2ccc3c(c2)CC(=O)N3)ncc1C(F)(F)F)S(C)(=O)=O [PF-562271] |  |  | attenuate EpEX-mediated GSK3β activity | attenuate
